Data taken from patent publication US20190374526A1, “Substituted Heterocyclic Compounds as Inhibitors of PRDM9” (Merck Sharp & Dohme Corp., priority 2018, published 2019).
pIC50: −log10 of the molar value.

Biological target: T1, hPRDM9 (amino acids 195-385) (Homo sapiens, UniProt Q9NQV7)
T1 construct: 1.25 nM hPRDM9 (amino acids 195-385)
T1 sequence (Q9NQV7 195-385): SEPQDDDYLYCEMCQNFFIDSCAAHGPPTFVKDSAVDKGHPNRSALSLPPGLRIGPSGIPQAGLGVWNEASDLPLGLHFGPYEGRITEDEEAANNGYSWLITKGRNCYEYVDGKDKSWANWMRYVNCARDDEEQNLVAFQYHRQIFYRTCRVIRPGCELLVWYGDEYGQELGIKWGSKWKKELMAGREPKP
Assay: PRDM9 biochemical assay (radiometric, 3[H] methyl transfer from SAM to biotinylated histone H3 peptide)
Conditions: 1 nM hPRDM9, 1 μM biotinylated H3(1-25)K4 peptide, 5 μM 3[H]-SAM, 55 μM un-labeled SAM, 25° C., 30 minutes
Method: The PRDM9 biochemical assay was carried out using a radiometric format involving the transfer of ^3[H] methyl group from S-adenosyl methionine (SAM) to a biotinylated histone H3 peptide (H3(1-25)K4). 10 mM compounds in DMSO were diluted 20 fold in assay buffer (10 mM Tris-HCl, pH 8.5, 10 mM DTT, and 0.01% Triton X-100) before adding […] to a well in a 384 well polypropylene microplate plate and adding 8 μl of reaction mix (1.25 nM hPRDM9 (amino acids 195-385), 1.25 μM biotinylated H3 peptide in assay buffer). The ^3[H]-SAM and cold SAM stock solutions were diluted to 50 μM and 550 μM respectively in assay buffer before aliquoting 1 μl of 50 μM ^3[H]-SAM, 550 μM SAM into each well to initiate the reaction. The assay was performed at 25° C. at the final concentrations of 1 nM hPRDM9, 1 μM peptide, 5 μM ^3[H]-SAM, and 55 μM un-labeled SAM in assay buffer. The reaction was quenched after 30 minutes by adding 25 μl 7.5 M Guanidine-HCl. Quenched reactions were transferred to streptavidin coated Flashplates, diluted two fold in assay buffer, incubated for 1 hour, and read on a Perkin Elmer Topcount instrument. Compound activity was expressed relative to activity of 0.5% (v/v) DMSO treated samples and fit to a four parameter logistic equation to determine IC50 values.

SMILES	pIC50
COc1cc(OC(F)(F)F)cc(-c2nc(N3CCCC4(CCN(c5ccnc(C)c5)CC4)C3)no2)c1 [Compound 91, 5-(3-methoxy-5-(trifluoromethoxy)phenyl)-3-(9-(2-methylpyridin-4-yl)-2,9-diazaspiro[5.5]undecan-2-yl)-1,2,4-oxadiazole]	6.82
Cc1cc(N2CCC3(CCCN(c4noc(-c5cc(OC(F)F)cc(OC(F)F)c5)n4)C3)CC2)ccn1 [Compound 92]	7.16
COc1cc(OC)cc(-c2noc(N3CCN(CC(F)(F)F)C4(CCN(c5ccnc(C)c5)CC4)C3)n2)c1 [Compound 93, 3-(3,5-dimethoxyphenyl)-5-(9-(2-methylpyridin-4-yl)-1-(2,2,2-trifluoroethyl)-1,4,9-triazaspiro[5.5]undecan-4-yl)-1,2,4-oxadiazole]	7.22
COCCN1CCN(c2nc(-c3cc(OC)cc(OC)c3)no2)CC12CCN(c1ccnc(C)c1)CC2 [Compound 94]	6.96
Cc1cc(N2CCC3(CC2)CN(c2nc(-c4cc(OC5CC5)cc(OC5CC5)c4)no2)CCN3C)ccn1 [Compound 95]	7.36
CCOc1cc(OCC)cc(-c2noc(N3CCN(C)C4(CCN(c5ccnc(C)c5)CC4)C3)n2)c1 [Compound 96]	6.99
Cc1cc(N2CCC3(CC2)CN(c2nc(-c4cc(OC(C)C)cc(OC(C)C)c4)no2)CCN3C)ccn1 [Compound 97]	5.86
COc1cc(OC)cc(-c2noc(N3CCN(CCO)C4(CCN(c5ccnc(C)c5)CC4)C3)n2)c1 [Compound 98]	7.02
COc1cc(OC)cc(-c2noc(N3CCN(S(C)(=O)=O)C4(CCN(c5ccnc(C)c5)CC4)C3)n2)c1 [Compound 99]	7.15
COc1cc(OC)cc(-c2noc(N3CCN(c4ccccc4)C4(CCN(c5ccnc(C)c5)CC4)C3)n2)c1 [Compound 100]	6.85
COc1cc(OC)cc(-c2noc(N3CCN(C(=O)N(C)C)C4(CCN(c5ccnc(C)c5)CC4)C3)n2)c1 [Compound 101]	6.35
COc1cc(OC)cc(-c2noc(N3CCN(C)C4(CCN(c5ccnc6ccccc56)CC4)C3)n2)c1 [Compound 102]	5.36
Cc1cc(N2CC3(CCCN(c4nc(-c5cc(Cl)cc(Cl)c5)no4)C3)C2)ccn1 [Compound 116, 3-(3,5-dichlorophenyl)-5-(2-(2-methylpyridin-4-yl)-2,6-diazaspiro[3.5]nonan-6-yl)-1,2,4-oxadiazole]	7.14
Cc1cc(N2CC3(CCCN(c4nc(-c5cccc(Br)c5)no4)C3)C2)ccn1 [Compound 117]	5.70
Cc1cc(N2CC3(CCCN(c4nc(-c5cc(Cl)cc(Cl)c5)co4)C3)C2)ccn1 [Compound 118]	4.78
Cc1cc(N2CC3(C2)CN(c2nc(-c4cc(Cl)cc(Cl)c4)no2)CCO3)ccn1 [Compound 119]	6.52
Cc1cc(N2CC3(CCCN(c4cncc(-c5cc(Cl)cc(Cl)c5)n4)C3)C2)ccn1 [Compound 120]	4.91
Cc1cc(N2CC3(CCCN(c4onc(-c5cc(Cl)cc(Cl)c5)c4Br)C3)C2)ccn1 [Compound 121, 4-bromo-3-(3,5-dichlorophenyl)-5-(2-(2-methylpyridin-4-yl)-2,6-diazaspiro[3.5]nonan-6-yl)isoxazole]	4.86
Cc1cc(N2CC3(CCCN(c4onc(-c5cc(Cl)cc(Cl)c5)c4-c4ccoc4)C3)C2)ccn1 [Compound 122, 3-(3,5-dichlorophenyl)-4-(furan-3-yl)-5-(2-(2-methylpyridin-4-yl)-2,6-diazaspiro[3.5]nonan-6-yl)isoxazole]	4.51
Cc1cc(N2CC3(CCCN(c4onc(-c5cc(Cl)cc(Cl)c5)c4-c4ccc(N)cc4)C3)C2)ccn1 [Compound 123]	5.18
COc1ccccc1-c1c(-c2cc(Cl)cc(Cl)c2)noc1N1CCCC2(CN(c3ccnc(C)c3)C2)C1 [Compound 124]	4.75
COc1ccc(-c2c(-c3cc(Cl)cc(Cl)c3)noc2N2CCCC3(CN(c4ccnc(C)c4)C3)C2)c(OC)c1 [Compound 125]	4.60
Cc1cc(N2CC3(CCCN(c4ccn(-c5cc(Cl)cc(Cl)c5)n4)C3)C2)ccn1 [Compound 126, 6-(1-(3,5-dichlorophenyl)-1H-pyrazol-3-yl)-2-(2-methylpyridin-4-yl)-2,6-diazaspiro[3.5]nonane]	4.95

SMILES	pIC50
Cc1cc(N2CC3(CCCN(CC(C)C(=O)c4cc(Cl)cc(Cl)c4)C3)C2)ccn1 (stereo not drawn) [Compound 127, 1-(3,5-dichlorophenyl)-2-methyl-3-(2-(2-methylpyridin-4-yl)-2,6-diazaspiro[3.5]nonan-6-yl)propan-1-one]	4.57
Cc1cc(N2CC3(CCCN(c4cc(-c5cccc(F)c5F)n[nH]4)C3)C2)ccn1 [Compound 128, 6-(3-(2,3-difluorophenyl)-1H-pyrazol-5-yl)-2-(2-methylpyridin-4-yl)-2,6-diazaspiro[3.5]nonane]	4.63
COC(=O)c1cccc(-c2cc(N3CCCC4(CN(c5ccnc(C)c5)C4)C3)on2)c1 [Compound 129, methyl 3-(5-(2-(2-methylpyridin-4-yl)-2,6-diazaspiro[3.5]nonan-6-yl)isoxazol-3-yl)benzoate]	4.72
COC(=O)c1cccc(-c2cc(N3CCCC4(CN(c5ccnc(C)c5)C4)C3)[nH]n2)c1 [Compound 130, methyl 3-(5-(2-(2-methylpyridin-4-yl)-2,6-diazaspiro[3.5]nonan-6-yl)-1H-pyrazol-3-yl)benzoate]	4.61
Cc1cc(N2CC3(CCCN(c4cc(-c5ccc(F)c(F)c5)n[nH]4)C3)C2)ccn1 [Compound 131, 6-(3-(3,4-difluorophenyl)-1H-pyrazol-5-yl)-2-(2-methylpyridin-4-yl)-2,6-diazaspiro[3.5]nonane]	4.64
Cc1cc(N2CC3(CCCN(c4ccnc(-c5cc(Cl)cc(Cl)c5)c4)C3)C2)ccn1 [Compound 132, 6-(2-(3,5-dichlorophenyl)pyridin-4-yl)-2-(2-methylpyridin-4-yl)-2,6-diazaspiro[3.5]nonane]	5.26
Cc1cc(N2CC3(CCCN(c4cc(-c5cccc(F)c5F)no4)C3)C2)ccn1 [Compound 133, 3-(2,3-difluorophenyl)-5-(2-(2-methylpyridin-4-yl)-2,6-diazaspiro[3.5]nonan-6-yl)isoxazole]	4.77
Cc1cc(N2CC3(CCCN(c4ccc5c(Cl)cc(Cl)cc5n4)C3)C2)ccn1 [Compound 134, 5,7-dichloro-2-(2-(2-methylpyridin-4-yl)-2,6-diazaspiro[3.5]nonan-6-yl)quinoline]	4.46
Cc1cc(N2CC3(CCCN(c4cc(-c5ccc(F)c(C(F)(F)F)c5)n[nH]4)C3)C2)ccn1 [Compound 135, 6-(3-(4-fluoro-3-(trifluoromethyl)phenyl)-1H-pyrazol-5-yl)-2-(2-methylpyridin-4-yl)-2,6-diazaspiro[3.5]nonane]	4.68
Cc1cc(N2CC3(CCCN(c4cc(-c5cc(F)cc(Cl)c5)n[nH]4)C3)C2)ccn1 [Compound 136, 6-(3-(3-chloro-5-fluorophenyl)-1H-pyrazol-5-yl)-2-(2-methylpyridin-4-yl)-2,6-diazaspiro[3.5]nonane]	4.78
Cc1cc(N2CC3(CCCN(c4cc(-c5cc(Cl)cc(Cl)c5)ccn4)C3)C2)ccn1 [Compound 137, 6-(4-(3,5-dichlorophenyl)pyridin-2-yl)-2-(2-methylpyridin-4-yl)-2,6-diazaspiro[3.5]nonane]	4.67
Cc1cc(N2CC3(CCCN(c4nc(-c5ccccc5)no4)C3)C2)ccn1 [Compound 138, 5-(2-(2-methylpyridin-4-yl)-2,6-diazaspiro[3.5]nonan-6-yl)-3-phenyl-1,2,4-oxadiazole]	5.32
COc1cc(OC)cc(-c2noc(N3CCOC4(CN(c5ccnc(C)c5)C4)C3)n2)c1 [Compound 139]	6.41
COc1cccc(-c2noc(N3CCCC4(CN(c5ccnc(C)c5)C4)C3)n2)c1 [Compound 142]	6.69
Cc1cc(N2CC3(CCCN(c4nc(Cc5ccc(F)cc5)no4)C3)C2)ccn1 [Compound 143]	≤ 4.30
Cc1cc(N2CC3(CCCN(c4nc(-c5ccc(Cl)cc5)no4)C3)C2)ccn1 [Compound 144]	4.37
COc1ccc(-c2noc(N3CCCC4(CN(c5ccnc(C)c5)C4)C3)n2)cc1OC [Compound 145]	5.33
Cc1cc(N2CC3(CCCN(c4nc(C5CC5)no4)C3)C2)ccn1 [Compound 146]	≤ 4.30
Cc1cc(N2CC3(CCCN(c4nc(-c5cccc(Cl)c5)no4)C3)C2)ccn1 [Compound 147]	6.58
Cc1cc(N2CC3(CCCN(c4nc(-c5ccccc5Cl)no4)C3)C2)ccn1 [Compound 148]	≤ 4.30
COc1cc(OC)cc(-c2noc(N3CC4(CCC3=O)CCN(c3ccnc(C)c3)CC4)n2)c1 [Compound 150]	7.18
COc1cccc(-c2noc(N3CC4(CCC3=O)CCN(c3ccnc(C)c3)CC4)n2)c1 [Compound 153, 2-(3-(3-methoxyphenyl)-1,2,4-oxadiazol-5-yl)-9-(2-methylpyridin-4-yl)-2,9-diazaspiro[5.5]undecan-3-one]	4.35
